Data from patent publication US4898815A (priority 1983, dated 1990).

Test system: intestinal loop of C3H mice
Design: species or system C3H mouse
Details: mouse, in vivo

cholera toxin
weight per cm of intestine (milligrams per centimeter of intestine): 126.7 mg
